Consider four molecules from patent US6887903B1, “N-(2-aryl-propionyl)-sulfonamides and pharmaceutical preparations containing them” (Dompe S.p.A., priority 1998, dated 2005).

The test system of one assay is CO enzymes. As to conditions: ketoprofen enantiomers; cited from earlier work.
Assay [1] concerns human PMNs leukocytes stimulated by IL-8. In words: Cytosol [Ca2+]i variations in human PMN stimulated by IL-8 (Fura-2AM). It is filed as cell-based. As to conditions: for [Ca2+]i response, % compared with basal values (basal normalized at 100): compound 10^−6 M + IL-8 50 ng/mL, mean of responsive cells with SEM, PMN from 3 donors; for percentage of non-responsive cells: pretreated with compound 10^−6 M, IL-8 50 ng/mL (30% with only IL-8). The procedure: (§1) The compounds of the invention were studied using PMN cells obtained by sedimentation of heparinized blood from healthy volunteers on dextran; the mononuclear cells were removed by means of Ficoll/Hypaque whereas erythrocytes were removed by treatment with hypotonic solutions. Cell viability of PMN leukocytes was calculated by exclusion with Turk and Trypan Blue, while the percentage of PM-nucleates on the cytocentrifugate was evaluated upon staining with Diff Quinck (W. J. Ming et al., J. Immunol., 138, 1469, 1987).
(§2) In each of the “in vitro” tests subsequently described, PMN were incubated with the compounds of the invention for 10 minutes at a temperature of 37° C.
(§3) In the chemotaxis tests and in those for evaluating cytosol levels of the Ca^2+ ion, human recombinant IL-8 (Pepro Tech.) was used as stimulating agent: the freeze-dried protein was dissolved in HBSS (Hank's balanced salts solution) at a concentration of 100 ng/mL and was used after dilution in HBSS to concentrations of 10 ng/mL in the chemotaxis tests and of 25-50 ng/mL in the evaluation of [Ca^2+]i cell modifications.
Cytosol variations of [Ca^2+]i were determined according to the experimental model described by C. Bizzarri et al., (Blood, 86, 2388, 1995), using slides containing adhered PMN added with 1 μM Fura-2AM to evaluate [Ca^2+]i variations in actual time. In their turn, PMN cytocentrifugates were resuspended in RPMI 1640 medium with 5% FCS (bovine foetal serum) at a concentration of 3×10^6/mL and then inoculated (plated) on round glass slides of 25 mm diameter which were placed in incubator for 30 min. at 37° C. After three subsequent washings with BSS (Balanced salts solution) to remove the non adherent cells, all of the adherent cells were further incubated for a maximum of 4 hours before adding Fura-2AM.
By way of example, results obtained with R(−)-N-2-[3-(benzoylphenyl)-propionyl])-methanesulfonamide (DF 1661) and R(−)-N-2-[(4-Isobutylphenyl)-propionyl]-methanesulfonamide (DF 1681) using human PMNs leukocytes from 3 different donors are reported in the subsequent table. These leukocytes were considered responsive to IL-8 (50 ng/mL) when [Ca^2+]i was higher than the basal value by 34% (normalized at 100) in response to the stimulus.
The responses, expressed as % compared with [Ca^2+]i basal values, are the mean of the values of the responsive cells and include standard error (SEM); n is the number of replications. During these tests, the percentage of non-responsive cells was different in the different groups: 30% in the group treated with only IL-8, 40% in the group pretreated with DF 1661 and 70% in the group pretreated with DF 1681.

For assay [2], the system named is PMN human leukocytes stimulated by interleukin 8. Kind of assay: Chemotaxis of human PMN induced by IL-8. In kind it is cell-based. As to conditions: IL-8 10 ng/mL; concentration range from 10^−6 to 10^−11 M; mean ±S.D. of 3 independent tests. The procedure:
as §1, §2, §3
In the chemotaxis test (according to W. Falket et al., J. Immunol. Methods, 33, 239, 1980) PVP filters of […] porosity and a plexigas microcamera suitable to perform 48 replications were used. […]

Assay [3] deals with PMN human leukocytes stimulated by f-MLP. Kind of assay: Chemotaxis of human PMN induced by f-MLP. In kind it is cell-based. As to conditions: f-MLP 10^−8 M; DF 1681 from 10^−6 to 10^−7 M. The protocol: as §1, §2
(§4) In the chemotaxis test (according to W. Falket et al., J. Immunol. Methods, 33, 239, 1980) PVP filters of […] porosity and a plexigas microcamera suitable to perform 48 replications were used. The microcamera consists of a plexiglas piece containing 48 wells, each of 25 μL capacity, and is equipped with a cover, in its turn containing 48 pores arranged so that, once the lid has been placed on and screwed to the underneath part, 50 μL capacity top compartments are formed in the microcamera.
(§5) Equal concentrations of the tested compounds were placed in the top wells containing the PMN suspension and in the lower ones, which contained the carrier optionally added with IL-8 (or a different stimulating agent).

Assay [4] deals with PMN human leukocytes stimulated by C5a. In words: Chemotaxis of human PMN induced by C5a. In kind it is cell-based. As to conditions: C5a 10^−9 M; DF 1681 from 10^−6 to 10^−7 M. The protocol: as §1, §2, §4, §5
The test system of assay [5] is human neutrophils stimulated by complement C5a. As to conditions: concentration range of 50 to 330 nM; cited from earlier work.
Assay [6] has as its system human neutrophils stimulated by GROα. As to conditions: GROα 10 nM; read-out: IC50 of blockage of chemotaxis stimulated by GROα; cited from earlier work.
Assay [7] concerns human neutrophils stimulated by IL-8. As to conditions: IL-8 1 nM; read-out: IC50 of blockage of chemotaxis stimulated by IL-8; cited from earlier work.

`C[C@@H](C(=O)O)c1cccc(C(=O)c2ccccc2)c1` (single isomer, unassigned) [enantiomer (R)]: the “lower potency of enantiomer (R) compared with enantiomer (S) as CO enzymes inhibitor” value in the assay on CO enzymes is given as 10-100 times.

As for `C[C@@H](C(=O)NS(C)(=O)=O)c1cccc(C(=O)c2ccccc2)c1` [DF 1661], in assay [1], the “[Ca2+]i response, % compared with basal values (basal normalized at 100)” value is 184 + 16 (n = 10) % and the “percentage of non-responsive cells” value was 40%.

Take `CC(C)Cc1ccc([C@@H](C)C(=O)NS(C)(=O)=O)cc1` [DF 1681, R(−)-N-[2-(4-Isobutylphenyl)propionyl]-methanesulfonamide]: the “inhibition of chemotaxis induced by IL-8 (number of migrated PMN, FIG. 1)” value in assay [2] is on record as “dose-dependently inhibits chemotaxis induced by IL-8”. Also, in assay [1], the “[Ca2+]i response, % compared with basal values (basal normalized at 100)” value was 159 + 16 (n = 10) % and the “percentage of non-responsive cells” value was determined as 70%. Further, the “inhibition of chemotaxis induced by f-MLP (FIG. 2)” value in assay [3] is “selectivity inhibit IL-8-induced chemotaxis instead of chemotaxis induced by C5a (10^−9 M) or by f-MLP”. Moreover, the “inhibition of chemotaxis induced by C5a (FIG. 2)” value in assay [4] is “selectivity inhibit IL-8-induced chemotaxis instead of chemotaxis induced by C5a”.

For `O=C(Nc1ccc([N+](=O)[O-])cc1O)Nc1ccccc1Br` [N-(2-hydroxy-4-nitrophenyl)-N′-(2-bromo-phenyl)urea], the “blockage of C5a-stimulated chemotaxis” value in assay [5] is recorded as “but not that of complement C5a-stimulated chemotaxis”. Besides, the IC50 in assay [6] and in assay [7] was 20 to 60 nM throughout.
